Test results from patent US20040242591A1, “Oxazolidinone derivatives as pontential antimicrobials” (priority 2001, published 2004).

Legend:
[1] = system: Ent. faecalis ATCC 29212; test: MIC by agar incorporation method, E.faecalis 29212; format: cell-based, Enterococcus faecalis; set-up: unit not given here; settings: Mueller Hinton agar, 10^4 CFU/spot, 18 hours
Text: 3) Ent. faecalis ATCC 29212—Enterococcus faecalis ATCC 29212

[2] = system: MRSA 33; test: MIC by agar incorporation method, MRSA 33; format: cell-based, Methicillin Resistant Staphylococcus aureus; set-up: unit not given here; settings: Mueller Hinton agar, 10^4 CFU/spot, 24 hours
[3] = system: S. pneum AB 34; test: MIC by agar incorporation method, S. pneum AB 34; format: cell-based, Streptococcus pneumoniae; set-up: unit not given here; settings: Mueller Hinton agar, 10^4 CFU/spot, 18 hours
[4] = system: VRE 6A; test: MIC by agar incorporation method, VRE 6A; format: cell-based, Enterococcus faecium; set-up: unit not given here; settings: Mueller Hinton agar, 10^4 CFU/spot, 18 hours
Text: 4) Ent. faecium […]—Enterococcus faecium 6A Van®, Cipro®

[5] = system: Strep.pyog. ATCC 19615; test: MIC by agar incorporation method, S.pyogenes 19615; format: cell-based, Streptococcus pyogenes; set-up: unit not given here; settings: Mueller Hinton agar, 10^4 CFU/spot, 18 hours
Text: 6) Strep.pyog. ATCC 19615—Streptococcus pyogenes

[6] = system: MRSA 562; test: MIC by agar incorporation method, MRSA 562; format: cell-based, Methicillin Resistant Staphylococcus aureus; set-up: unit not given here; settings: Mueller Hinton agar, 10^4 CFU/spot, 24 hours
[7] = system: MRSA 15187; test: MIC by agar incorporation method, MRSA 15187; format: cell-based, Methicillin Resistant Staphylococcus aureus; set-up: unit not given here; settings: Mueller Hinton agar, 10^4 CFU/spot, 24 hours
Text: 2) MRSA 15187—Methicillin Resistant Staphylococcus aureus

[8] = system: S.aureus ATCC 25923; test: MIC by agar incorporation method, S.aureus 25923; format: cell-based, Staphylococus aureus; set-up: unit not given here; settings: Mueller Hinton agar, 10^4 CFU/spot, 18 hours
[9] = system: Strep. pne. ATCC 6303; test: MIC by agar incorporation method, S. pneum 6303; format: cell-based, Streptococcus pneumoniae; settings: Mueller Hinton agar, 10^4 CFU/spot, 18 hours
Text: 5) Strep. pne. ATCC 6303—Streptococcus pneumoniae ATCC 6303

In Vitro (MIC) E.faecalis 29212 [1] | In Vitro (MIC) MRSA 33 [2] | In Vitro (MIC) S. pneum AB 34 [3] | In Vitro (MIC) VRE 6A [4] | In Vitro (MIC) S.pyogenes 19615 [5] | In Vitro (MIC) MRSA 562 [6] | In Vitro (MIC) MRSA 15187 [7] | In Vitro (MIC) S.aureus 25923 [8] | In Vitro (MIC) S. pneum 6303 [9] [µg/mL] | SMILES
8 | 4 | 8 | 8 | 2 | 4 | 8 | 8 | 2 | CC(=O)NC[C@H]1CN(c2ccc(N3CCN(CC(=O)c4cccs4)CC3)c(F)c2)C(=O)O1 [Compound No. 2, (S)-N-[[3-[3-Fluoro-4-[N-1-[4-(2-thiophenoyl-methyl}]piperazinyl]phenyl]-2-oxo-5-oxazolidinyl]methyl]acetamide]
0.5 | 1 | 1 | 1 | 1 | 1 | 1 | 1 | 1 | CC(=O)NC[C@H]1CN(c2ccc(N3CCN(C(=O)c4ccc(-c5ccc(Cl)cc5[N+](=O)[O-])o4)CC3)c(F)c2)C(=O)O1 [Compound No. 35]
4 | 4 | 2 | 4 | 2 | 4 | 4 | 4 | 2 | COc1ccc(CN2CCN(c3ccc(N4C[C@H](CNC(C)=O)OC4=O)cc3F)CC2)o1 [Compound No. 15, (S)-N-[[3-[3-Fluoro-4-[N-1-[4-{2-furyl-(5-methoxy)methyl}]piperazinyl]phenyl]-2-oxo-5-oxazolidinyl]methyl]acetamide]
4 | >8 | 1 | 4 | 1 | >8 | >8 | >8 | 1 | CC(=O)NC[C@H]1CN(c2ccc(N3CCN(C(=O)c4cc([N+](=O)[O-])[nH]n4)CC3)c(F)c2)C(=O)O1 [Compound No. 31]
2 | 0.254 | 1 | 4 | 0.5 | 2 | 2 | 2 | 1 | CC(=O)NC[C@H]1CN(c2ccc(N3CCN(Cc4oc([N+](=O)[O-])cc4C)CC3)c(F)c2)C(=O)O1 [Compound No. 5]
2 | 2 | 4 | 2 | 1 | 1 | 2 | 2 | 1 | CC(=O)NC[C@H]1CN(c2ccc(N3CCCN(Cc4ccc([N+](=O)[O-])o4)CC3)c(F)c2)C(=O)O1 [Compound No. 52, (S)-N-[[3-[3-Fluoro-4-[N-1-[4-{2-furyl(5-nitro)methyl}]homopiperazinyl]phenyl]-2-oxo-5-oxazolidinyl]methyl]acetamide]
2 | 0.5 | 4 | 2 | 0.5 | 0.5 | 0.5 | 0.5 | 4 | CCN(C(=O)c1ccc([N+](=O)[O-])s1)C1CCN(c2ccc(N3C[C@H](CNC(C)=O)OC3=O)cc2F)CC1 [Compound No. 79, (S)-N-[[3-[3-Fluoro-4-[4-{N-ethyl-2-thienoyl-(5-nitro)}aminopiperidine-1-yl]phenyl]-2-oxo-5-oxazolidinyl]methyl]acetamide]
<0.25 | 0.5 | 1 | <0.25 | 1 | <0.25 | 0.5 | 1 | 1 | CC(=O)NC[C@H]1CN(c2ccc(N3CCC(N(C)C(=O)c4ccc([N+](=O)[O-])o4)C3)c(F)c2)C(=O)O1 (stereo partly drawn) [Compound No. 92]
4 | 8 | 4 | 4 | 1 | 4 | 8 | 8 | 4 | CC(=O)NC[C@H]1CN(c2ccc(N3CCN(C(=O)c4ccc(N)s4)CC3)c(F)c2)C(=O)O1 [Compound No. 34, (S)-N-[[3-[3-Fluoro-4-[N-1-[4-{2-thiophenoyl-(5-amino)}]piperazinyl]phenyl]-2-oxo-5-oxazolidinyl]methyl]acetamide]
2 | 2 | 1 | 2 | 0.5 | 2 | 2 | 2 | 0.5 | O=C(CCl)NC[C@H]1CN(c2ccc(N3CCN(Cc4ccc([N+](=O)[O-])o4)CC3)c(F)c2)C(=O)O1 [Compound No. 46]
0.5 | 0.5 | 2 | 0.5 | 2 | 0.5 | 0.5 | 0.5 | 2 | CC(=O)NC[C@H]1CN(c2ccc(N3CCN(C(C)c4ccc([N+](=O)[O-])s4)CC3)c(F)c2)C(=O)O1 (stereo partly drawn) [Compound No. 100]
1 | 1 | 4 | 1 | 2 | 0.5 | 1 | 1 | 4 | CCN(C(=O)c1ccc([N+](=O)[O-])o1)C1CCN(c2ccc(N3C[C@H](CNC(C)=O)OC3=O)cc2F)CC1 [Compound No. 80, (S)-N-[[3-[3-Fluoro-4-[4-{N-ethyl-2-furoyl-(5-nitro)}aminopiperidine-1-yl]phenyl]-2-oxo-5-oxazolidinyl]methyl]acetamide]
0.25 | 0.5 | 0.125 | 0.5 | <0.06 | 0.5 | 0.5 | 0.5 | 0.25 | CC(=O)NC[C@H]1CN(c2ccc(N3CCN(C(=O)c4oc([N+](=O)[O-])cc4C)CC3)c(F)c2)C(=O)O1 [Compound No. 37, (S)-N-[[3-[3-Fluoro-4-[N-1-[4-{2-furoyl-(3-methyl-5-nitro)}]piperazinyl]phenyl]-2-oxo-5-oxazolidinyl]methyl]acetamide]
1 | 0.5 | 1 | 0.5 | 0.5 | 1 | 0.25 | 0.5 | 1 | CC(=O)NC[C@H]1CN(c2ccc(N3CCN(C(=O)C=Cc4ccc([N+](=O)[O-])s4)CC3)c(F)c2)C(=O)O1 [Compound No. 40, (S)-N-[[3-[3-Fluoro-4-[N-1-[4-{2-thiophenoyl-(5-nitro)acrylic}]piperazinyl]phenyl]-2-oxo-5-oxazolidinyl]methyl]-acetamide]

SMILES | In Vitro (MIC) E.faecalis 29212 [1] | In Vitro (MIC) MRSA 33 [2] | In Vitro (MIC) S. pneum AB 34 [3] | In Vitro (MIC) VRE 6A [4] | In Vitro (MIC) S.pyogenes 19615 [5] | In Vitro (MIC) MRSA 562 [6] | In Vitro (MIC) MRSA 15187 [7] | In Vitro (MIC) S.aureus 25923 [8] | In Vitro (MIC) S. pneum 6303 [9] [µg/mL]
CC(=O)NC[C@H]1CN(c2ccc(N3CCN(Cc4ccc([N+](=O)[O-])[nH]4)CC3)c(F)c2)C(=O)O1 [Compound No. 13, (S)-N-[[3-[3-Fluoro-4-[N-1-[4-{2-pyrrole-(5-nitro)methyl}]piperazinyl]phenyl]-2-oxo-5-oxazolidinyl]methyl]acetamide] | 4 | 4 | 4 | 4 | 1 | 4 | 2 | 4 | 4
